Results as given in ChEMBL document CHEMBL3112532, “Synthesis, [¹⁸F] radiolabeling, and evaluation of poly (ADP-ribose) polymerase-1 (PARP-1) inhibitors for in vivo imaging of PARP-1 using positron emission tomography” (Bioorg Med Chem, 2014).

Key:
[1] = target: Poly [ADP-ribose] polymerase 1 (Homo sapiens, UniProt P09874); experiment: Inhibition of PARP-1 (unknown origin) assessed as NAD+ consumption after 20 mins by fluorometric analysis in presence of activated DNA
Tumour [2] = experiment: Drug uptake in tumor of athymic nu/nu mouse xenografted with human MDA-MB-231 cells at 200 uCi measured at 60 mins by microPET image analysis in presence of olaparib; assay type: ADME, Neoplasm; conditions: in vivo, 1 h
Tumour [3] = experiment: Drug uptake in tumor of athymic nu/nu mouse xenografted with human MDA-MB-436 cells at 200 uCi measured at 60 mins by microPET image analysis; assay type: ADME, Neoplasm; conditions: 1 h
Tumour [4] = experiment: Drug uptake in tumor of athymic nu/nu mouse xenografted with human MDA-MB-436 cells at 200 uCi measured at 60 mins by microPET image analysis in presence of 5,6-Dihydro-2-(4-(2-fluoroethoxy)phenyl)-imidazo[4,5,1-jk][1,4]benzodiazepin-7(4H)-one; assay type: ADME, Neoplasm; conditions: 1 h

Sequence of Poly [ADP-ribose] polymerase 1 (P09874 whole entry): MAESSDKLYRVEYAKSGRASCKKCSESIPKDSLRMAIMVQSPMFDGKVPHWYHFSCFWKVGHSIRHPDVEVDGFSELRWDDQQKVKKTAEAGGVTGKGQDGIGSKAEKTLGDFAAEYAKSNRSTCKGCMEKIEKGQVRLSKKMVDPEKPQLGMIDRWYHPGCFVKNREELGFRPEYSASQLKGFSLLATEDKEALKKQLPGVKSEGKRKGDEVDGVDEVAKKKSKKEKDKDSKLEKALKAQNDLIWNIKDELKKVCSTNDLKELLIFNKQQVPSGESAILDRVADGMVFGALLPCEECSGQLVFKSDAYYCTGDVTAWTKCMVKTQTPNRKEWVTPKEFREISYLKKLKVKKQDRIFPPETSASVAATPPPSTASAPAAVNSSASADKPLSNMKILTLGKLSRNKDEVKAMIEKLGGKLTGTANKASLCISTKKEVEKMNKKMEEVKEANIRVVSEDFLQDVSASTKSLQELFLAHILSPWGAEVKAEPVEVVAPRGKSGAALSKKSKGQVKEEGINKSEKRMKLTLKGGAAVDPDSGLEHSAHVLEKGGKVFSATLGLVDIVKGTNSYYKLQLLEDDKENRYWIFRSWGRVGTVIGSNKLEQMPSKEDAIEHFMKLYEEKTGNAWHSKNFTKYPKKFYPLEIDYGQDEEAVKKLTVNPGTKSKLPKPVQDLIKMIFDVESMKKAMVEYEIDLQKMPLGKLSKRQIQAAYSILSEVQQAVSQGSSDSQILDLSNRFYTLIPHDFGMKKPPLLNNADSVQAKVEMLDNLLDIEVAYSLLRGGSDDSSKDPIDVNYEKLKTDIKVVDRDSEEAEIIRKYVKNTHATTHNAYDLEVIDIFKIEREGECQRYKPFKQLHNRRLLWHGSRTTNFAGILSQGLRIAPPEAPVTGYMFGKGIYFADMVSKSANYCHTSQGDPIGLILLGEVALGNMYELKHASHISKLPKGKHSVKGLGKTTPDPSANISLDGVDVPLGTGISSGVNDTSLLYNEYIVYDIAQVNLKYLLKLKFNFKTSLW

## O=C1NCCn2c(-c3ccc(OCCF)cc3)nc3cccc1c32
[1]
  IC50: 6.3 nM

## O=C1NCCn2c(-c3ccc(OCC[18F])cc3)nc3cccc1c32
Tumour [2]
  Drug uptake: Not Active
Tumour [3]
  Drug uptake: Active
Tumour [4]
  Drug uptake: Not Active
